Laboratory results reported in patent US10501461B2, “Tyrosine amide derivatives as Rho-kinase inhibitors” (CHIESI FARMACEUTICI S.P.A., priority 2017, dated 2019).

Tests used:
Rho kinase 2 (ROCK-II) = Rho kinase 2 (ROCK-II) (Homo sapiens, UniProt O75116); assay: In vitro Rho kinase inhibitory activity assay (ADP-Glo), Rho kinase 2; assay type: biochemical; details: 10 μM ATP, 25° C., expressed as range of activity
Experimental: (§1) The effectiveness of compounds of the present invention to inhibit Rho kinase activity can be determined in a 10 μl assay containing 40 mM Tris pH7.5, 20 mM MgCl2 0.1 mg/ml BSA, 50 μM DTT and 2.5 μM peptide substrate (Myelin Basic Protein) using an ADP-Glo kit (Promega). Compounds were dissolved in DMSO such that the final concentration of DMSO was 1% in the assay. All reactions/incubations are performed at 25° C. Compound (2 ul) and either Rho kinase 1 or 2 (4 μl) were mixed and incubated for 30 mins. Reactions were initiated by addition of ATP (4 μl) such that the final concentration of ATP in the assay was 10 μM. After a 1 hour incubation 10 μl of ADP-Glo Reagent was added and after a further 45 minute incubation 20 ul of Kinase Detection Buffer was added and the mixture incubated for a further 30 minutes. The luminescent signal was measured on a luminometer. […] Compounds were tested in dose-response format and the inhibition of kinase activity was calculated at each concentration of compound. To determine the IC50 (concentration of compound required to inhibit 50% of the enzyme activity) data were fit to a plot of % inhibition vs Log10 compound concentration using a sigmoidal fit with a variable slope and fixing the maximum to 100% and the minimum to 0%. To determine the Ki values the Cheng-Prusoff equation was utilized (Ki=IC50/(1+[S]/Km).

Rho kinase 1 (ROCK-I) = Rho kinase 1 (ROCK-I) (Homo sapiens, UniProt Q13464); assay: In vitro Rho kinase inhibitory activity assay (ADP-Glo), Rho kinase 1; assay type: biochemical; details: 10 μM ATP, 25° C., expressed as range of activity
Experimental: as §1

Sequence of Rho kinase 2 (ROCK-II) (O75116 whole entry): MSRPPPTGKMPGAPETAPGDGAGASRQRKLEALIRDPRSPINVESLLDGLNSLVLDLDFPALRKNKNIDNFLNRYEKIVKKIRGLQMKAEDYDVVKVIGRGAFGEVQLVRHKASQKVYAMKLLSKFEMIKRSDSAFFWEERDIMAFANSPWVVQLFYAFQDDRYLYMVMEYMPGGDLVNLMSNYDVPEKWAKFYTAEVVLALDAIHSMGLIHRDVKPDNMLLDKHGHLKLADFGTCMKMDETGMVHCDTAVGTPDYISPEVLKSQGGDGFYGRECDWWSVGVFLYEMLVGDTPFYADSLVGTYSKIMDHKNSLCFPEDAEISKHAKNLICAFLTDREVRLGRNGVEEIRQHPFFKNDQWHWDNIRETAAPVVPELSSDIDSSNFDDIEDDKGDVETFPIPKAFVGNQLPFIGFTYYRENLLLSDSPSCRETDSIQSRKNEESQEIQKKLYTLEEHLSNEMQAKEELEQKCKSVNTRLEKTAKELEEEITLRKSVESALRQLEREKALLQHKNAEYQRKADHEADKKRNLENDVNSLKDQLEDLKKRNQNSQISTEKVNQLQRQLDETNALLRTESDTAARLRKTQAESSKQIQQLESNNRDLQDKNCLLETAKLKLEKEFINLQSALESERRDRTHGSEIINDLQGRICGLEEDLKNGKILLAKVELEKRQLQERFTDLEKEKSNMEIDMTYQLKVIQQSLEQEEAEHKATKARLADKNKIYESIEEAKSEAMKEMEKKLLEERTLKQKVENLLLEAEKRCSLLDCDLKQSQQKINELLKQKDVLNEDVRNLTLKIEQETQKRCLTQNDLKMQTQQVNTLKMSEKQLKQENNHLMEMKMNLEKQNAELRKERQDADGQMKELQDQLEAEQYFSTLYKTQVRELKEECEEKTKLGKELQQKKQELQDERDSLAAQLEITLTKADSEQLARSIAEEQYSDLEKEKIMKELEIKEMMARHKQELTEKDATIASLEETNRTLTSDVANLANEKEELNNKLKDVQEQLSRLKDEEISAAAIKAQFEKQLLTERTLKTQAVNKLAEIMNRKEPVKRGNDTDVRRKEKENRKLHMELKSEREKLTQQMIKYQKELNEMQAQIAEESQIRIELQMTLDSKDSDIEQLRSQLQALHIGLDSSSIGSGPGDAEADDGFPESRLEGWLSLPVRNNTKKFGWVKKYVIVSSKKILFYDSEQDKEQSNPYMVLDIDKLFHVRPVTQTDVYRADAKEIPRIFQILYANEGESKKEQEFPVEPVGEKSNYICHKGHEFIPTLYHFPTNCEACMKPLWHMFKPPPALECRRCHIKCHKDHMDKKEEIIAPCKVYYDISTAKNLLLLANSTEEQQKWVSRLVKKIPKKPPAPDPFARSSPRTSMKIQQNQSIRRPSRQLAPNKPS
Sequence of Rho kinase 1 (ROCK-I) (Q13464 whole entry): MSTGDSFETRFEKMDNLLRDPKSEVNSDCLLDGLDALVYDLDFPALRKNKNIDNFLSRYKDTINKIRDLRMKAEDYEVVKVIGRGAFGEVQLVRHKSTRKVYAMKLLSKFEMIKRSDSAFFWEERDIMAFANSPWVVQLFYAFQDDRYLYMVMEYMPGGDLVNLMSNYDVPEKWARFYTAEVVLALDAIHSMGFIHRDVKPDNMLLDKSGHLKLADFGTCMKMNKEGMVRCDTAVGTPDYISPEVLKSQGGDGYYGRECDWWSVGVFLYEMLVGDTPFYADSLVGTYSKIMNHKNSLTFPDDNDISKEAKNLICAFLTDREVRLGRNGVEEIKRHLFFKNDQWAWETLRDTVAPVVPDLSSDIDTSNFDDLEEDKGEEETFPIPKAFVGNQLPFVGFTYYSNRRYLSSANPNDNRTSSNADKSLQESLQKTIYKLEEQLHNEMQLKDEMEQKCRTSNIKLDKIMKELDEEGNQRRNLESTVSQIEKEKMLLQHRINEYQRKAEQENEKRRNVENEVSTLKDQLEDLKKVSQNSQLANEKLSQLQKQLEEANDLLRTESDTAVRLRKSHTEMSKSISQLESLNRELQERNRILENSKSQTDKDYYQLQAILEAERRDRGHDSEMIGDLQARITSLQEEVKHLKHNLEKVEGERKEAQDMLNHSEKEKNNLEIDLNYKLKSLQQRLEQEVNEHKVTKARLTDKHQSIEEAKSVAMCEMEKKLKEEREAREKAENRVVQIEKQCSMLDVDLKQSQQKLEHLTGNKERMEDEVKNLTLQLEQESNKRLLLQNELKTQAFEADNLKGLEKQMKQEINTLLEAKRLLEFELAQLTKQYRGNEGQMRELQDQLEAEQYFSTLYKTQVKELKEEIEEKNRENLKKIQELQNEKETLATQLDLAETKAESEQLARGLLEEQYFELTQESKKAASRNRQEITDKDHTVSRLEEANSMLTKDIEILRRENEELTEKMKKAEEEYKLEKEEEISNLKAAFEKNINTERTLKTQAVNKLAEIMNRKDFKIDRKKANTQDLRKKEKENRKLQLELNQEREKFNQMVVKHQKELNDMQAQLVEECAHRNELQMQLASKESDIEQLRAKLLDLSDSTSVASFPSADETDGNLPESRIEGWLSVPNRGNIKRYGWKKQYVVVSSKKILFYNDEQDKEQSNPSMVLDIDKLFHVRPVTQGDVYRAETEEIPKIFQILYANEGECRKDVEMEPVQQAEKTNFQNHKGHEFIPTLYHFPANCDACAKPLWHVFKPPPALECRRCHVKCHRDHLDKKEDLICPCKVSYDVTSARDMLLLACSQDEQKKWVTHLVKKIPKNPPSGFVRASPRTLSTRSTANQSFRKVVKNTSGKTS

Compound | Ki (Rho kinase 2 (ROCK-II)) [nM] | Ki (Rho kinase 1 (ROCK-I)) [nM]
Cc1c[nH]c2nccc(Oc3ccc(CC(N)C(=O)N4CCC(c5ccncc5)C4)cc3F)c12 (racemic) [Example 66, 2-amino-3-(3-fluoro-4-((3-methyl-1H-pyrrolo[2,3-b]pyridin-4-yl)oxy)phenyl)-1-(3-(pyridin-4-yl)pyrrolidin-1-yl)propan-1-one] | < 3 | < 3
Cc1noc(C2CCN(C(=O)[C@@H](N)Cc3ccc(Oc4ccnc5[nH]cc(C)c45)c(F)c3)C2)n1 (single isomer, unassigned) [Example 8A] | < 3 | < 3
Cc1noc(C2CCN(C(=O)[C@@H](N)Cc3ccc(Oc4ccnc5[nH]cc(C)c45)c(F)c3)C2)n1 (single isomer, unassigned) [Example 8B] | < 3 | < 3
Cc1c[nH]c2nccc(Oc3ccc(CC(N)C(=O)NCCc4ccncc4)cc3F)c12 (single isomer, unassigned) [Example 57A, 2-amino-3-(3-fluoro-4-((3-methyl-1H-pyrrolo[2,3-b]pyridin-4-yl)oxy)phenyl)-N-(2-(pyridin-4-yl)ethyl)propanamide] | < 3 | 3 to 30
NC(Cc1ccc(Oc2ccnc3[nH]ccc23)cc1)C(=O)Nc1ccc(C(F)(F)F)cc1 (single isomer, unassigned) [Example 91A, 3-(4-((1H-pyrrolo[2,3-b]pyridin-4-yl)oxy)phenyl)-2-amino-N-(4-(trifluoromethyl)phenyl)propanamide] | < 3 | < 3
NC(Cc1ccc(Oc2ccnc3[nH]ccc23)cc1)C(=O)Nc1ccc(C(F)(F)F)cc1 (single isomer, unassigned) [Example 91B, 3-(4-((1H-pyrrolo[2,3-b]pyridin-4-yl)oxy)phenyl)-2-amino-N-(4-(trifluoromethyl)phenyl)propanamide] | 3 to 30 | 3 to 30
Cc1c[nH]c2nccc(Oc3ccc(C[C@H](N)C(=O)NC4CCN(C)CC4)cc3F)c12 [Example 1, (S)-2-amino-3-(3-fluoro-4-((3-methyl-1H-pyrrolo[2,3-b]pyridin-4-yl)oxy)phenyl)-N-(1-methylpiperidin-4-yl)propanamide] | < 3 | < 3
Cc1c[nH]c2nccc(Oc3ccc(C[C@H](N)C(=O)N4CCc5ncncc5C4)cc3F)c12 [Example 2, (S)-2-amino-1-(7,8-dihydropyrido[4,3-d]pyrimidin-6(5H)-yl)-3-(3-fluoro-4-((3-methyl-1H-pyrrolo[2,3-b]pyridin-4-yl)oxy)phenyl)propan-1-one] | < 3 | < 3
Cc1c[nH]c2nccc(Oc3ccc(C[C@H](N)C(=O)N4CCN(c5ccccc5)CC4)cc3F)c12 [Example 5, (S)-2-amino-3-(3-fluoro-4-((3-methyl-1H-pyrrolo[2,3-b]pyridin-4-yl)oxy)phenyl)-1-(4-phenylpiperazin-1-yl)propan-1-one] | < 3 | < 3
Cc1noc(C2CCN(C(=O)[C@@H](N)Cc3ccc(Oc4ccnc5[nH]cc(C)c45)c(F)c3)C2)n1 (stereo partly drawn) [Example 8, (2S)-2-amino-3-(3-fluoro-4-((3-methyl-1H-pyrrolo[2,3-b]pyridin-4-yl)oxy)phenyl)-1-(3-(3-methyl-1,2,4-oxadiazol-5-yl)pyrrolidin-1-yl)propan-1-one] | < 3 | < 3
Cc1c[nH]c2nccc(Oc3ccc(C[C@H](N)C(=O)N4CCc5ccccc5C4)cc3F)c12 [Example 10, (S)-2-amino-1-(3,4-dihydroisoquinolin-2(1H)-yl)-3-(3-fluoro-4-((3-methyl-1H-pyrrolo[2,3-b]pyridin-4-yl)oxy)phenyl)propan-1-one] | < 3 | < 3
Cc1c[nH]c2nccc(Oc3ccc(C[C@H](N)C(=O)N4CCC(Oc5cccnc5)CC4)cc3F)c12 [Example 11, (S)-2-amino-3-(3-fluoro-4-((3-methyl-1H-pyrrolo[2,3-b]pyridin-4-yl)oxy)phenyl)-1-(4-(pyridin-3-yloxy)piperidin-1-yl)propan-1-one] | < 3 | < 3
Cc1c[nH]c2nccc(Oc3ccc(C[C@H](N)C(=O)N4CCC(c5ccncc5)CC4)cc3F)c12 [Example 12, (S)-2-amino-3-(3-fluoro-4-((3-methyl-1H-pyrrolo[2,3-b]pyridin-4-yl)oxy)phenyl)-1-(4-(pyridin-4-yl)piperidin-1-yl)propan-1-one] | < 3 | < 3
Cc1c[nH]c2nccc(Oc3ccc(C[C@H](N)C(=O)N4CCC(N(C)C)CC4)cc3F)c12 [Example 14, (S)-2-amino-1-(4-(dimethylamino)piperidin-1-yl)-3-(3-fluoro-4-((3-methyl-1H-pyrrolo[2,3-b]pyridin-4-yl)oxy)phenyl)propan-1-one] | < 3 | < 3

Other lines, results leading:

Ki (Rho kinase 2 (ROCK-II)) [nM] | Ki (Rho kinase 1 (ROCK-I)) [nM] | Compound
< 3 | < 3 | Cc1c[nH]c2nccc(Oc3ccc(C[C@H](N)C(=O)N4CCOC(c5ccccc5)C4)cc3F)c12 (mixture of isomers) [Example 4, (2S)-2-amino-3-(3-fluoro-4-((3-methyl-1H-pyrrolo[2,3-b]pyridin-4-yl)oxy)phenyl)-1-(2-phenylmorpholino)propan-1-one]
< 3 | < 3 | Cc1c[nH]c2nccc(Oc3ccc(C[C@H](N)C(=O)N4CCN(C)C(c5ccccc5)C4)cc3F)c12 (mixture of isomers) [Example 6, (2S)-2-amino-3-(3-fluoro-4-((3-methyl-1H-pyrrolo[2,3-b]pyridin-4-yl)oxy)phenyl)-1-(4-methyl-3-phenylpiperazin-1-yl)propan-1-one]
< 3 | < 3 | Cc1c[nH]c2nccc(Oc3ccc(CC(N)C(=O)NCCc4ccncc4)cc3F)c12 (single isomer, unassigned) [Example 57B, 2-amino-3-(3-fluoro-4-((3-methyl-1H-pyrrolo[2,3-b]pyridin-4-yl)oxy)phenyl)-N-(2-(pyridin-4-yl)ethyl)propanamide]
3 to 30 | 3 to 30 | Cc1c[nH]c2nccc(Oc3ccc(CC(N)C(=O)N4CCCC4c4ccccc4)cc3F)c12 (single isomer, unassigned) [Example 84, 2-amino-3-(3-fluoro-4-((3-methyl-1H-pyrrolo[2,3-b]pyridin-4-yl)oxy)phenyl)-1-(2-phenylpyrrolidin-1-yl)propan-1-one]
3 to 30 | 3 to 30 | Cc1c[nH]c2nccc(Oc3ccc(CC(N)C(=O)N4CCCC4c4ccccc4)cc3F)c12 (single isomer, unassigned) [Example 85, 2-amino-3-(3-fluoro-4-((3-methyl-1H-pyrrolo[2,3-b]pyridin-4-yl)oxy)phenyl)-1-(2-phenylpyrrolidin-1-yl)propan-1-one]
< 3 | < 3 | Cc1c[nH]c2nccc(Oc3ccc(CC(N)C(=O)N4CCN(Cc5ccccc5)CC4)cc3F)c12 (single isomer, unassigned) [Example 132A, 2-amino-1-(4-benzylpiperazin-1-yl)-3-(3-fluoro-4-((3-methyl-1H-pyrrolo[2,3-b]pyridin-4-yl)oxy)phenyl)propan-1-one]
< 3 | 3 to 30 | Cc1c[nH]c2nccc(Oc3ccc(CC(N)C(=O)N4CCN(Cc5ccccc5)CC4)cc3F)c12 (single isomer, unassigned) [Example 132B, 2-amino-1-(4-benzylpiperazin-1-yl)-3-(3-fluoro-4-((3-methyl-1H-pyrrolo[2,3-b]pyridin-4-yl)oxy)phenyl)propan-1-one]
3 to 30 | 3 to 30 | Cc1c[nH]c2nccc(Oc3ccc(C[C@H](N)C(=O)N4CC5(CN(C)C5)C4)cc3F)c12 [Example 3, (S)-2-amino-3-(3-fluoro-4-((3-methyl-1H-pyrrolo[2,3-b]pyridin-4-yl)oxy)phenyl)-1-(6-methyl-2,6-diazaspiro[3.3]heptan-2-yl)propan-1-one]
< 3 | < 3 | Cc1c[nH]c2nccc(Oc3ccc(C[C@H](N)C(=O)N4CCC(S(=O)(=O)c5ccccc5)CC4)cc3F)c12 [Example 7, (S)-2-amino-3-(3-fluoro-4-((3-methyl-1H-pyrrolo[2,3-b]pyridin-4-yl)oxy)phenyl)-1-(4-(phenylsulfonyl)piperidin-1-yl)propan-1-one]
< 3 | < 3 | Cc1c[nH]c2nccc(Oc3ccc(C[C@H](N)C(=O)N4CCC(O)(Cc5ccccc5)CC4)cc3F)c12 [Example 9, (S)-2-amino-1-(4-benzyl-4-hydroxypiperidin-1-yl)-3-(3-fluoro-4-((3-methyl-1H-pyrrolo[2,3-b]pyridin-4-yl)oxy)phenyl)propan-1-one]
< 3 | < 3 | Cc1c[nH]c2nccc(Oc3ccc(C[C@H](N)C(=O)N4CCC(Cc5ccccc5)CC4)cc3F)c12 [Example 13, (S)-2-amino-1-(4-benzylpiperidin-1-yl)-3-(3-fluoro-4-((3-methyl-1H-pyrrolo[2,3-b]pyridin-4-yl)oxy)phenyl)propan-1-one]
< 3 | < 3 | Cc1c[nH]c2nccc(Oc3ccc(C[C@H](N)C(=O)NCCCN(C)C)cc3F)c12 [Example 15, (S)-2-amino-N-(3-(dimethylamino)propyl)-3-(3-fluoro-4-((3-methyl-1H-pyrrolo[2,3-b]pyridin-4-yl)oxy)phenyl)propanamide]
